From ChEMBL document CHEMBL4732091, “Design, synthesis and biological evaluation of novel thiosemicarbazone-indole derivatives targeting prostate cancer cells” (Eur J Med Chem, 2021)
pIC50: −log10 of the molar value. The source made the active and inactive calls. The calls are words filed in the database; no cut-off is given here.

Experiments:
DU-145 [1] = experiment: Induction of apoptosis in human DU-145 cells assessed as necrotic cells at 0.5 uM measured after 72 hrs by Annexin V-FITC/propidium iodide staining based flow cytometry method (reference value: 1.13 %); assay type: functional
PC-3 [2] = experiment: Induction of apoptosis in human PC-3 cells assessed as early apoptotic cells at 25 nM measured after 72 hrs by Annexin V-FITC/propidium iodide staining based flow cytometry method (reference value: 0.452 %); assay type: functional
DU-145 [3] = experiment: Cell cycle arrest in human DU-145 cells assessed as accumulation of cells in G1/S phase by measuring upregulation of p27 measured after 48 hrs by Western blot assay; assay type: functional, cell-based; details: dose 1.5-6 µM
DU-145 [4] = experiment: Induction of apoptosis in human DU-145 cells assessed as early apoptotic cells at 0.5 uM measured after 72 hrs by Annexin V-FITC/propidium iodide staining based flow cytometry method (reference value: 0.835 %); assay type: functional
DU-145 [5] = experiment: Induction of apoptosis in human DU-145 cells assessed as cell rounding at 0.5 to 2 uM measured after 72 hrs by Hoechst staining based fluorescence method; assay type: functional; details: dose 0.5-2 µM
PC-3 [6] = experiment: Induction of apoptosis in human PC-3 cells assessed as increase in Bax expression at 25 to 100 nM measured by Western blot assay; assay type: functional, cell-based; details: dose 25-100 nM
PC-3 [7] = experiment: Induction of apoptosis in human PC-3 cells assessed as late apoptotic cells at 50 nM measured after 72 hrs by Annexin V-FITC/propidium iodide staining based flow cytometry method (reference value: 1.01 %); assay type: functional
DU-145 [8] = experiment: Induction of apoptosis in human DU-145 cells assessed as early apoptotic cells at 2 uM measured after 72 hrs by Annexin V-FITC/propidium iodide staining based flow cytometry method (reference value: 0.835 %); assay type: functional
PC-3 [9] = experiment: Induction of apoptosis in human PC-3 cells assessed as cell rounding at 25 to 100 nM measured after 72 hrs by Hoechst staining based fluorescence microscope method; assay type: functional; details: dose 25-100 nM
PC-3 [10] = experiment: Induction of apoptosis in human PC-3 cells assessed as nuclear fragmentation at 25 to 100 nM measured after 72 hrs by Hoechst staining based fluorescence microscope method; assay type: functional, cell-based; details: dose 25-100 nM
DU-145 [11] = experiment: Induction of apoptosis in human DU-145 cells assessed as increase in PARP at 0.5 to 2 uM measured by Western blot assay; assay type: functional, cell-based; details: dose 0.5-2 µM
PC-3 [12] = experiment: Induction of apoptosis in human PC-3 cells assessed as formation of apoptotic bodies at 25 to 100 nM measured after 72 hrs by Hoechst staining based fluorescence microscope method; assay type: functional, cell-based; details: dose 25-100 nM
DU-145 [13] = experiment: Induction of apoptosis in human DU-145 cells assessed as late apoptotic cells at 0.5 uM measured after 72 hrs by Annexin V-FITC/propidium iodide staining based flow cytometry method (reference value: 1.77 %); assay type: functional
PC-3 [14] = experiment: Induction of apoptosis in human PC-3 cells assessed as late apoptotic cells at 25 nM measured after 72 hrs by Annexin V-FITC/propidium iodide staining based flow cytometry method (reference value: 1.01 %); assay type: functional
PC-3 [15] = experiment: Antiproliferative activity against human PC-3 cells assessed as inhibition of cell proliferation in presence of Fe3+ measured after 72 hrs by MTT assay; assay type: functional, cell-based
PC-3 [16] = experiment: Induction of apoptosis in human PC-3 cells assessed as necrotic cells at 50 nM measured after 72 hrs by Annexin V-FITC/propidium iodide staining based flow cytometry method (reference value: 1.2 %); assay type: functional
DU-145 [17] = experiment: Induction of apoptosis in human DU-145 cells assessed as necrotic cells at 1 uM measured after 72 hrs by Annexin V-FITC/propidium iodide staining based flow cytometry method (reference value: 1.13 %); assay type: functional
PC-3 [18] = experiment: Cell cycle arrest in human PC-3 cells assessed as accumulation of cells in G1/S phase by measuring upregulation of p27 measured after 48 hrs by Western blot assay; assay type: functional, cell-based; details: dose 125-500 nM
PC-3 [19] = experiment: Induction of apoptosis in human PC-3 cells assessed as necrotic cells at 100 nM measured after 72 hrs by Annexin V-FITC/propidium iodide staining based flow cytometry method (reference value: 1.2 %); assay type: functional
DU-145 [20] = experiment: Antiproliferative activity against human DU-145 cells assessed as reduction in colony formation at 0.25 to 1 uM measured after 6 days by crystal violet staining based colony assay; assay type: functional, cell-based; details: dose 0.25-1 µM, time 6.0 day
PC-3 [21] = experiment: Induction of apoptosis in human PC-3 cells assessed as reduction in Bcl-2 expression at 25 to 100 nM measured by Western blot assay; assay type: functional, cell-based; details: dose 25-100 nM
PC-3 [22] = experiment: Activation of MAPK signaling in human PC-3 cells assessed as increase in phosphorylated JNK (Thr 183/Tyr 185) at 125 to 500 nM measured by Western blot assay; assay type: cell-based; details: filed as activator, dose 125-500 nM
PC-3 [23] = experiment: Antiproliferative activity against human PC-3 cells assessed as reduction in colony formation at 12.5 to 50 nM measured after 6 days by crystal violet staining based colony assay; assay type: functional, cell-based; details: dose 12.5-50 nM, time 6.0 day
MGC-803 = experiment: Antiproliferative activity against human MGC-803 cell line cells assessed as inhibition of cell proliferation measured after 72 hrs by MTT assay; assay type: functional, cell-based; details: MGC-803, 72 h
PC-3 [24] = experiment: Antitumour activity against human PC-3 cells xenografted in BALB/c-NU mouse assessed as reduction in tumour growth at 25 mg/kg, IG qd measured after 21 days relative to control; assay type: functional; parameters: scale not given: the % may be the effect or the level left; details: time 21 day
[25] = Toxicity in C57BL/6 mouse assessed as effect on kidney at 2 mg/kg, IG measured after 2 weeks by hematoxylin and eosin staining based imaging analysis; assay type: organism-based; details: in vivo, po, 336 h
DU-145 [26] = experiment: Induction of apoptosis in human DU-145 cells assessed as viable cells at 1 uM measured after 72 hrs by Annexin V-FITC/propidium iodide staining based flow cytometry method (reference value: 96.3 %); assay type: functional; details: read-out: Activity
PC-3 [27] = experiment: Induction of ROS generation in human PC-3 cells assessed as intracellular ROS level at 250 nM measured after 48 hrs by DCFH-DA staining based flowcytometry method (reference value: 55.2 %); assay type: functional
[28] = Toxicity in C57BL/6 mouse assessed as effect on heart at 2 mg/kg, IG measured after 2 weeks by hematoxylin and eosin staining based imaging analysis; assay type: organism-based; details: in vivo, po, 336 h
DU-145 [29] = experiment: Induction of cell cycle arrest in human DU-145 cells assessed as accumulation at G1/S phase measured after 48 hrs by PI staining based Flowcytometry method; assay type: functional; details: dose 1.5-6 µM
PC-3 [30] = experiment: Induction of apoptosis in human PC-3 cells assessed as viable cells at 25 nM measured after 72 hrs by Annexin V-FITC/propidium iodide staining based flow cytometry method (reference value: 97.2 %); assay type: functional; details: read-out: Activity
MCF7 = experiment: Antiproliferative activity against human MCF7 cell line cells assessed as inhibition of cell proliferation measured after 72 hrs by MTT assay; assay type: functional, cell-based; details: MCF7, 72 h
DU-145 [31] = experiment: Induction of apoptosis in human DU-145 cells assessed as reduction in Bcl-2 expression at 0.5 to 2 uM measured by Western blot assay; assay type: functional, cell-based; details: dose 0.5-2 µM
PC-3 [32] = experiment: Induction of ROS generation in human PC-3 cells assessed as intracellular ROS level at 250 nM pretreated with NAC followed by compound treatment measured after 48 hrs by DCFH-DA staining based flowcytometry method (reference value: 49.9 %); assay type: functional

## Cc1ccc(/C=N/NC(=S)Nc2ccc(C(=O)NCCc3c(C)[nH]c4ccccc34)cc2)nc1
DU-145 [1]
  Activity: 1.95%
PC-3 [2]
  Activity: 2.32%
DU-145 [3]
  Activity: Active
DU-145 [4]
  Activity: 0.41%
DU-145 [5]
  Activity: Active
PC-3 [6]
  Activity: Active
PC-3 [7]
  Activity: 33.5%
DU-145 [8]
  Activity: 10.5%
PC-3 [9]
  Activity: Active
PC-3 [10]
  Activity: Active
DU-145 [11]
  Activity: Active
PC-3 [12]
  Activity: Active
DU-145 [13]
  Activity: 3.78%
PC-3 [14]
  Activity: 4.36%
PC-3 [15]
  inhibition: Active
PC-3 [16]
  Activity: 8.91%
DU-145 [17]
  Activity: 4.81%
PC-3 [18]
  Activity: Active
PC-3 [19]
  Activity: 9.14%
DU-145 [20]
  inhibition: Active
PC-3 [21]
  Activity: Active
PC-3 [22]
  Activity: Active
PC-3 [23]
  inhibition: Active
MGC-803
  pIC50: 5.33
PC-3 [24]
  Activity: 43.4%
[25]
  Activity: Non-Toxic
DU-145 [26]
  viability at 1 µM: 62.1%
PC-3 [27]
  Activity: 87%
[28]
  Activity: Non-Toxic
DU-145 [29]
  Activity: Dose-dependent effect
PC-3 [30]
  viability at 0.025 µM: 98.5%
MCF7
  pIC50: 5.27
DU-145 [31]
  Activity: Active
PC-3 [32]
  Activity: 74.5%
